Test results from ChEMBL document CHEMBL3046894, “Synthesis and Herbicidal Activity of Pyrimidinyl Salicylic and Thiosalicylic Acids” (J Pestic Sci, 1996).
Active and inactive are the calls of the source.

Columns and labels:
[1] = test system: Echinochloa crus-galli; assay: Pre-emergence herbicidal activity against Echinochloa crus-galli (barnyard grass) assessed as mortality at 6.3 g a.i/10 a; format: functional; details: Echinochloa crus-galli, pre-emergence
[2] = test system: Xanthium strumarium; assay: Post-emergence herbicidal activity against Xanthium strumarium (cocklebur) assessed as mortality at 6.3 g a.i/10 a applied 11 days after germination as foliar spray; format: functional; details: 264 h
[3] = test system: Echinochloa crus-galli; assay: Pre-emergence herbicidal activity against Echinochloa crus-galli (barnyard grass) assessed as mortality at 1.6 g a.i/10 a; format: functional; details: Echinochloa crus-galli, pre-emergence
[4] = test system: Echinochloa crus-galli; assay: Pre-emergence herbicidal activity against Echinochloa crus-galli (barnyard grass) assessed as growth inhibition at 25 g a.i/10 a; format: functional, organism-based
[5] = Pre-emergence phytotoxicity against Zea mays (maize) assessed as mortality at 1.6 g a.i/10 a; format: organism-based; details: in vivo, 1.6 g a.i/10 a, read-out: mortality
[6] = test system: Xanthium strumarium; assay: Pre-emergence herbicidal activity against Xanthium strumarium (cocklebur) assessed as mortality at 1.6 g a.i/10 a; format: functional; details: Xanthium strumarium, pre-emergence
[7] = test system: Echinochloa crus-galli; assay: Post-emergence herbicidal activity against Echinochloa crus-galli (barnyard grass) assessed as growth inhibition at 25 g a.i/10 a applied 11 days after germination as foliar spray; format: functional, organism-based
[8] = test system: Xanthium strumarium; assay: Pre-emergence herbicidal activity against Xanthium strumarium (cocklebur) assessed as mortality at 6.3 g a.i/10 a; format: functional; details: Xanthium strumarium, pre-emergence
[9] = test system: Amaranthus retroflexus; assay: Post-emergence herbicidal activity against Amaranthus retroflexus assessed as growth inhibition at 25 g a.i/10 a applied 11 days after germination as foliar spray; format: functional, organism-based
[10] = test system: Digitaria sanguinalis; assay: Post-emergence herbicidal activity against Digitaria sanguinalis (hairy crabgrass) assessed as growth inhibition at 25 g a.i/10 a applied 11 days after germination as foliar spray; format: functional, organism-based
[11] = test system: Gossypium hirsutum; assay: Post-emergence phytotoxicity against Gossypium hirsutum (cotton) assessed as mortality at 1.6 g a.i/10 a applied 11 days after germination as foliar spray; format: organism-based; details: in vivo, other, 264 h
[12] = test system: Persicaria nodosa; assay: Pre-emergence herbicidal activity against Persicaria nodosa assessed as growth inhibition at 25 g a.i/10 a; format: functional, organism-based
[13] = test system: Gossypium hirsutum; assay: Post-emergence phytotoxicity against Gossypium hirsutum (cotton) assessed as mortality at 6.3 g a.i/10 a applied 11 days after germination as foliar spray; format: organism-based; details: in vivo, other, 264 h
[14] = test system: Glycine max; assay: Pre-emergence phytotoxicity against Glycine max (soybean) assessed as mortality at 1.6 g a.i/10 a; format: organism-based; details: in vivo, other
[15] = test system: Glycine max; assay: (§1) Post-emergence phytotoxicity against Glycine max (soybean) assessed as mortality at 1.6 g a.i/10 a applied 11 days after germination as foliar spray; format: organism-based; details: in vivo, other, 264 h
[16] = test system: Chenopodium album; assay: Post-emergence herbicidal activity against Chenopodium album assessed as growth inhibition at 25 g a.i/10 a applied 11 days after germination as foliar spray; format: functional, organism-based
[17] = test system: Persicaria nodosa; assay: Post-emergence herbicidal activity against Persicaria nodosa assessed as growth inhibition at 25 g a.i/10 a applied 11 days after germination as foliar spray; format: functional, organism-based
[18] = test system: Ipomoea lacunosa; assay: Pre-emergence herbicidal activity against Ipomoea lacunosa assessed as mortality at 6.3 g a.i/10 a; format: functional; details: Ipomoea lacunosa, pre-emergence
[19] = test system: Gossypium hirsutum; assay: Pre-emergence phytotoxicity against Gossypium hirsutum (cotton) assessed as mortality at 6.3 g a.i/10 a; format: organism-based; details: in vivo, other
[20] = test system: Xanthium strumarium; assay: Post-emergence herbicidal activity against Xanthium strumarium (cocklebur) assessed as mortality at 1.6 g a.i/10 a applied 11 days after germination as foliar spray; format: functional; details: 264 h
[21] = test system: Glycine max; assay: (§2) Pre-emergence phytotoxicity against Glycine max (soybean) assessed as mortality at 6.3 g a.i/10 a; format: organism-based; details: in vivo, other
[22] = test system: Chenopodium album; assay: Pre-emergence herbicidal activity against Chenopodium album assessed as growth inhibition at 25 g a.i/10 a; format: functional, organism-based
[23] = test system: Zea mays; assay: (§3) Post-emergence phytotoxicity against Zea mays (maize) assessed as mortality at 1.6 g a.i/10 a applied 11 days after germination as foliar spray; format: organism-based; details: in vivo, other, 264 h
[24] = test system: Abutilon theophrasti; assay: Pre-emergence herbicidal activity against Abutilon theophrasti (velvetleaf) assessed as mortality at 1.6 g a.i/10 a; format: functional; details: Abutilon theophrasti, pre-emergence
[25] = test system: Abutilon theophrasti; assay: Pre-emergence herbicidal activity against Abutilon theophrasti (velvetleaf) assessed as mortality at 6.3 g a.i/10 a; format: functional; details: Abutilon theophrasti, pre-emergence
[26] = test system: Cyperus iria; assay: Pre-emergence herbicidal activity against Cyperus iria assessed as growth inhibition at 25 g a.i/10 a; format: functional, organism-based
[27] = test system: Digitaria sanguinalis; assay: Pre-emergence herbicidal activity against Digitaria sanguinalis (hairy crabgrass) assessed as growth inhibition at 25 g a.i/10 a; format: functional, organism-based
[28] = test system: Zea mays; assay: Post-emergence phytotoxicity against Zea mays (maize) assessed as mortality at 6.3 g a.i/10 a applied 11 days after germination as foliar spray; format: organism-based; details: in vivo, other, 264 h
[29] = test system: Cyperus iria; assay: Post-emergence herbicidal activity against Cyperus iria assessed as growth inhibition at 25 g a.i/10 a applied 11 days after germination as foliar spray; format: functional, organism-based
[30] = test system: Amaranthus retroflexus; assay: Pre-emergence herbicidal activity against Amaranthus retroflexus assessed as growth inhibition at 25 g a.i/10 a; format: functional, organism-based
[31] = test system: Glycine max; assay: Post-emergence phytotoxicity against Glycine max (soybean) assessed as mortality at 6.3 g a.i/10 a applied 11 days after germination as foliar spray; format: organism-based; details: in vivo, other, 264 h
[32] = test system: Ipomoea lacunosa; assay: Pre-emergence herbicidal activity against Ipomoea lacunosa assessed as mortality at 1.6 g a.i/10 a; format: functional; details: Ipomoea lacunosa, pre-emergence
[33] = test system: Gossypium hirsutum; assay: Pre-emergence phytotoxicity against Gossypium hirsutum (cotton) assessed as mortality per 10 acre; format: organism-based; details: in vivo
[34] = test system: Ipomoea lacunosa; assay: Post-emergence herbicidal activity against Ipomoea lacunosa assessed as mortality per 10 acre; format: functional
[35] = test system: Echinochloa crus-galli; assay: Pre-emergence herbicidal activity against Echinochloa crus-galli (barnyard grass) assessed as mortality per 10 acre; format: functional
[36] = test system: Gossypium hirsutum; assay: Pre-emergence phytotoxicity against Gossypium hirsutum (cotton) assessed as mortality at 1.6 g a.i/10 a; format: organism-based; details: in vivo, other
[37] = test system: Abutilon theophrasti; assay: Post-emergence herbicidal activity against Abutilon theophrasti (velvetleaf) assessed as mortality at 6.3 g a.i/10 a applied 11 days after germination as foliar spray; format: functional; details: 264 h
[38] = test system: Echinochloa crus-galli; assay: Post-emergence herbicidal activity against Echinochloa crus-galli (barnyard grass) assessed as mortality per 10 acre; format: functional
[39] = test system: Amaranthus retroflexus; assay: Pre-emergence herbicidal activity against Amaranthus retroflexus assessed as mortality per 10 acre; format: functional
[40] = test system: Abutilon theophrasti; assay: Post-emergence herbicidal activity against Abutilon theophrasti (velvetleaf) assessed as mortality at 1.6 g a.i/10 a applied 11 days after germination as foliar spray; format: functional; details: 264 h
[41] = as §1; format: organism-based; details: in vivo, 1.6 g a.i/10 a
[42] = test system: Ipomoea lacunosa; assay: Post-emergence herbicidal activity against Ipomoea lacunosa assessed as mortality at 1.6 g a.i/10 a applied 11 days after germination as foliar spray; format: functional; details: 264 h
[43] = test system: Gossypium hirsutum; assay: Post-emergence phytotoxicity against Gossypium hirsutum (cotton) assessed as mortality per 10 acre; format: organism-based; details: in vivo
[44] = test system: Xanthium strumarium; assay: Post-emergence herbicidal activity against Xanthium strumarium (cocklebur) assessed as mortality per 10 acre; format: functional
[45] = test system: Echinochloa crus-galli; assay: Post-emergence herbicidal activity against Echinochloa crus-galli (barnyard grass) assessed as mortality at 6.3 g a.i/10 a applied 11 days after germination as foliar spray; format: functional; details: 264 h
[46] = test system: Ipomoea lacunosa; assay: Post-emergence herbicidal activity against Ipomoea lacunosa assessed as mortality at 6.3 g a.i/10 a applied 11 days after germination as foliar spray; format: functional; details: 264 h
[47] = test system: Xanthium strumarium; assay: Pre-emergence herbicidal activity against Xanthium strumarium (cocklebur) assessed as mortality per 10 acre; format: functional
[48] = test system: Ipomoea lacunosa; assay: Pre-emergence herbicidal activity against Ipomoea lacunosa assessed as mortality per 10 acre; format: functional
[49] = as §2; format: organism-based; details: in vivo, 6.3 g a.i/10 a, read-out: mortality
[50] = as §3; format: organism-based; details: in vivo, 1.6 g a.i/10 a
[51] = test system: Amaranthus retroflexus; assay: Post-emergence herbicidal activity against Amaranthus retroflexus assessed as mortality per 10 acre; format: functional
[52] = test system: Persicaria nodosa; assay: Post-emergence herbicidal activity against Persicaria nodosa assessed as mortality per 10 acre; format: functional
[53] = test system: Persicaria nodosa; assay: Pre-emergence herbicidal activity against Persicaria nodosa assessed as mortality per 10 acre; format: functional
[54] = test system: Abutilon theophrasti; assay: Pre-emergence herbicidal activity against Abutilon theophrasti (velvetleaf) assessed as mortality at 100 g a.i/10 a; format: functional
[55] = test system: Echinochloa crus-galli; assay: Pre-emergence herbicidal activity against Echinochloa crus-galli (barnyard grass) assessed as mortality at 100 g a.i/10 a; format: functional
[56] = test system: Echinochloa crus-galli; assay: Pre-emergence herbicidal activity against Echinochloa crus-galli (barnyard grass) assessed as mortality at 200 g a.i/10 a; format: functional, organism-based
[57] = test system: Xanthium strumarium; assay: Pre-emergence herbicidal activity against Xanthium strumarium (cocklebur) assessed as mortality at 200 g a.i/10 a; format: functional, organism-based
[58] = test system: Ipomoea lacunosa; assay: Pre-emergence herbicidal activity against Ipomoea lacunosa assessed as mortality at 100 g a.i/10 a; format: functional
[59] = test system: Ipomoea lacunosa; assay: Pre-emergence herbicidal activity against Ipomoea lacunosa assessed as mortality at 200 g a.i/10 a; format: functional
[60] = Pre-emergence phytotoxicity against Glycine max (soybean) assessed as mortality at 100 g a.i/10 a; format: organism-based; details: in vivo
[61] = test system: Glycine max; assay: Pre-emergence phytotoxicity against Glycine max (soybean) assessed as mortality at 200 g a.i/10 a; format: organism-based; details: in vivo, other
[62] = test system: Abutilon theophrasti; assay: Pre-emergence herbicidal activity against Abutilon theophrasti (velvetleaf) assessed as mortality at 200 g a.i/10 a; format: functional
[63] = test system: Xanthium strumarium; assay: Pre-emergence herbicidal activity against Xanthium strumarium (cocklebur) assessed as mortality at 100 g a.i/10 a; format: functional

COC(=O)c1cccc(Oc2nc(OC)cc(OC)n2)c1C(=O)O
Non-toxic: Activity [14] | Activity [19] | Activity [21]
< 5%: mortality at 63 g/ha [1] | mortality at 63 g/ha [2] | mortality at 16 g/ha [3] | mortality [5] | mortality at 16 g/ha [6] | mortality at 63 g/ha [8] | mortality at 63 g/ha [18] | mortality at 16 g/ha [20] | mortality at 16 g/ha [24] | mortality at 63 g/ha [25] | mortality at 16 g/ha [32]
active: growth inhibition (GI) [7] | growth inhibition (GI) [9] | growth inhibition (GI) [10] | growth inhibition (GI) [12] | growth inhibition (GI) [16] | growth inhibition (GI) [17] | growth inhibition (GI) [22] | growth inhibition (GI) [26] | growth inhibition (GI) [27] | growth inhibition (GI) [29] | growth inhibition (GI) [30]
inactive: growth inhibition (GI) [4]
Toxic: Activity [11] | Activity [13] | Activity [15] | Activity [23] | Activity [28] | Activity [31]

COc1cc(OC)nc(Oc2cccc(Br)c2C(=O)O)n1
0.4 gAi: ED90 [39] | ED90 [53]
25 gAi: ED90 [47] | ED90 [48]
1.5 gAi: ED90 [35] | ED90 [44]
< 5%: mortality at 16 g/ha [32]
active: growth inhibition (GI) [4] | growth inhibition (GI) [7] | growth inhibition (GI) [9] | growth inhibition (GI) [10] | growth inhibition (GI) [12] | growth inhibition (GI) [16] | growth inhibition (GI) [17] | growth inhibition (GI) [22] | growth inhibition (GI) [26] | growth inhibition (GI) [27] | growth inhibition (GI) [29] | growth inhibition (GI) [30]
0.2 gAi: ED20 [43] | ED90 [51] | ED90 [52]
> 90%: mortality at 63 g/ha [1] | mortality at 63 g/ha [2] | mortality [5] | mortality at 63 g/ha [37] | mortality at 16 g/ha [40] | mortality at 264 h [41] | mortality at 16 g/ha [42] | mortality at 63 g/ha [45] | mortality at 63 g/ha [46] | mortality [49] | mortality at 264 h [50] | mortality at 63 g/ha [25]
Toxic: ED20 [33] | Activity [11] | Activity [13] | Activity [14]
0.8 gAi: ED90 [34]
inactive: ED90 [38]
Non-toxic: Activity [36] | Activity [19]

CN(C)C(=O)Nc1cccc(C(F)(F)F)c1 [FLUOMETURON]
active: Activity [56]
inactive: Activity [57]
Toxic: Activity [61]
< 5%: mortality at 1000 g/ha [54] | mortality at 1000 g/ha [55] | mortality at 1000 g/ha [58] | mortality at 2000 g/ha [59] | mortality [60] | mortality at 2000 g/ha [62] | mortality at 1000 g/ha [63]
